According to PMC12275099, “VX-445 (elexacaftor) inhibits chloride secretion across human bronchial epithelial cells by directly blocking KCa3.1 channels” (PNAS Nexus, 2025):
Several values for one entry are separate records, joined by “and”; a condition that tells them apart may be missing. Identical values can stand only once. Like-named read-outs stand apart in the source and are kept apart here.

Experiments:
[1] = tested on: primary WT CFTR-expressing HBEs; experiment: Ussing chamber Isc, forskolin-stimulated Cl- secretion; assay type: cell-based, human; conditions: for Isc in the presence of VX-445: single filters
Source text: Primary human bronchial epithelial cells (HBEs) were collected from unused or discarded samples from the Center for Organ Recovery and Education via the University of Pittsburgh Pulmonary, Allergy, Critical Care, and Sleep Medicine Lung Biobank and Repository. All experimental procedures involving the use of HBEs were approved by the institutional review board (IRB STUDY19090084) and the Committee for Oversight of Research and Clinical Training Involving Decedents (CORID number 451) at the University of Pittsburgh. At all times, authors were blind to the identity of HBE donors. HBEs were cultured using the Vertex method ([72]). Studies were carried out on WT CFTR HBEs from 11 ([13]) donors and homozygous F508del/F508del CFTR HBEs from five ([5]) separate donors. HBEs were plated on Costar Transwell permeable supports ([…], 6.5 mm insert, polyester membrane, Corning) and grown at an air–liquid interface for 5+ weeks in HBE differentiation medium containing 2% Ultroser-G. Basolateral media were replaced three times per week. For whole-cell patch-clamp studies, HBEs were maintained in BronchiaLife airway media (LifeLine Cell Technology, LS-1047) and plated onto poly-L-lysine-coated coverslips (see below).
Costar Transwell inserts were mounted in a modified Ussing chamber (P2300, Physiologic Instruments) and the monolayers continuously short-circuited (VCC MC8, Physiologic Instruments) by forcing the transepithelial voltage to 0 mV. Short-circuit current (Isc) measurements were taken in symmetric solutions, containing (in mM): 120 NaCl, 25 NaHCO3, 3.3 KH2PO4, 0.8 K2HPO4, 1.2 CaCl2, 1.2 MgCl2, and 10 glucose. The pH of the solution is 7.4 when gassed with 95% O2–5% CO2 at 37°C. Compounds were added cumulatively following the establishment of a new stable current response. Amiloride was added to the apical membrane, while all other compounds were added to both membranes due to their lipophilic nature. In all experiments, 10 µM amiloride was used to inhibit sodium absorption. Percent inhibition was calculated as the change in Isc (ΔIsc) between the forskolin or DCEBIO stable current level and the Isc following addition of the compound being assessed divided by the ΔIsc between the stable forskolin- or DCEBIO-induced Isc and the Isc following bumetanide addition.

[2] = target: T1, endogenous KCa3.1 in WT CFTR-expressing HBEs (Homo sapiens, UniProt O15554); experiment: Whole-cell patch-clamp on undifferentiated HBEs; assay type: cell-based; conditions: VX-445 10 µM; 500 nM free Ca2+ in pipette; n = 3; read-out: inhibition of whole-cell outward potassium current
T1 construct: endogenous in cells; host or cells: undifferentiated primary human bronchial epithelial cells (WT CFTR donors)
Protocol: Our Isc results are consistent with VX-445 inhibiting KCa3.1 in HBEs. To directly assess this possibility, we initially carried out whole-cell patch-clamp studies on undifferentiated HBEs. […] Upon application of 10 µM VX-445, a majority of this current was inhibited, averaging 87 ± 4% (n = 3, P < 0.005; Fig. 3B). A summary of the current–voltage (I–V) relationship—normalized to cell capacitance—is shown in Fig. 3C, which also includes the whole-cell I–V in the presence of Tram-34. […] To ensure isolation of KCa3.1 currents and to more fully characterize this VX-445-dependent inhibition of KCa3.1, we utilized HEK cells heterologously expressing KCa3.1 (HEK-KCa3.1). Initially, we confirmed our results from HBEs, using whole-cell recordings, as above. […] In seven experiments, this inhibition averaged 58 ± 7% (P < 0.005). […] It is well recognized that drugs are carried to their targets in the blood bound to albumin, which ranges from 3.4 to 5.4%. Thus, we determined whether VX-445 (10 µM) would inhibit KCa3.1 expressed in HEK cells in the presence of 3.4% albumin. In four experiments, VX-445 inhibited an average of 51 ± 17% of the whole-cell KCa3.1 current, which is not different from that observed in the absence of albumin. To confirm the direct effect of VX-445 on KCa3.1, we utilized the excised, inside-out patch-clamp technique. The patch was then exposed to DCEBIO (100 µM) to further activate the channels ([34–37])—analogous to our Isc studies in HBEs. […] In three experiments, VX-445 inhibited an average of 63 ± 6% of the KCa3.1 current. Based on these experiments, we determined the apparent inhibitory constant, Ki for VX-445. For these experiments, patches were excised into saturating Ca^2+ (3 µM) to ensure maximal KCa3.1 activation. These studies were carried out in the absence of DCEBIO to eliminate the possibility that the inhibition observed was due to competition for the DCEBIO-binding site.
Primary human bronchial epithelial cells (HBEs) were collected from unused or discarded samples from the Center for Organ Recovery and Education via the University of Pittsburgh Pulmonary, Allergy, Critical Care, and Sleep Medicine Lung Biobank and Repository. All experimental procedures involving the use of HBEs were approved by the institutional review board (IRB STUDY19090084) and the Committee for Oversight of Research and Clinical Training Involving Decedents (CORID number 451) at the University of Pittsburgh. At all times, authors were blind to the identity of HBE donors. HBEs were cultured using the Vertex method ([72]). Studies were carried out on WT CFTR HBEs from 11 ([13]) donors and homozygous F508del/F508del CFTR HBEs from five ([5]) separate donors. […]

[3] = design: method as in earlier work; conditions: clinical trial data, converted, cited from earlier work
[4] = design: method as in PMID 36371965; conditions: patients with CF, converted; cited from earlier work
[5] = tested on: preconstricted mesenteric artery; design: method as in PMID 38954478; conditions: cited from earlier work

Compound: Cc1nn(C)cc1S(=O)(=O)NC(=O)c1ccc(-n2ccc(OCC(C)(C)C(F)(F)F)n2)nc1N1C[C@@H](C)CC1(C)C [VX-445, elexacaftor]
- percent inhibition of forskolin-stimulated Isc from control ([1]; 5 µM VX-445, Fig 1D): 33%
- Isc in the presence of VX-445 ([1]; Fig 1F, VX-445 10 µM after forskolin and bumetanide): 21 and 18 and 15 and 14 and 16 and 19 and 27 and 20
- Isc in the presence of VX-445 ([1]; Fig 2B, VX-445 10 µM after forskolin): 12 and 11 and 16 and 20 and 15 and 21 and 19 and 14
- inhibition at 1 µM ([1]; Homo sapiens, 1 µM VX-445, Fig 1D, read-out: percent inhibition of forskolin-stimulated Isc from control): 0%
- inhibition at 10 µM ([1]; Homo sapiens, VX-445 10 µM after VX-661 10 µM, nine filters from three donors, read-out: inhibition of forskolin-stimulated current subsequent to VX-661): 47 ± 2%
- inhibition at 10 µM ([1]; Homo sapiens, VX-445 10 µM, four donors, n = 13 (TRAM-34 series), read-out: inhibition of the forskolin-stimulated current): 56 ± 2%
- inhibition at 10 µM ([1]; Homo sapiens, VX-445 10 µM, 16 experiments from three donors (paxilline series), read-out: inhibition of the forskolin-stimulated Isc): 45 ± 2%
- decrease of the forskolin-induced Cl- current ([1]; VX-445 10 µM, 35 filters from five donors): 47 ± 2%
- effect on the bumetanide-insensitive current ([1]; applied after forskolin and bumetanide, VX-445 10 µM, acetazolamide 1 µM): had no effect
- inhibition at 10 µM [2]: 87 ± 4%
- minimal (Cmin) plasma concentration [3]: 6 to 9 µM
- Cmax ([3]; read-out: maximal (Cmax) plasma concentration): ~15 µM
- mean concentration in nasal brushing cell lysates, upper end [4]: ~9 µM
- effect on preconstricted mesenteric artery [5]: capable of relaxing preconstricted mesenteric artery
